{"source": "ChEMBL document CHEMBL2040776", "about": "“Docking, synthesis and pharmacological activity of novel urea-derivatives designed as p38 MAPK inhibitors” (Eur J Med Chem, 2012)", "key": {"Rattus norvegicus [1]": {"system": "Rattus norvegicus", "experiment": "Antihypernociceptive activity in Wistar rat assessed as inhibition of capsaicin-induced thermal hypernociception by measuring paw withdrawal latency at 100 umol/kg, po administered 1 hr before capsaicin challenge measured after 10 mins", "type": "functional, organism-based"}, "Mus musculus": {"system": "Mus musculus", "experiment": "Antihypernociceptive activity in po dosed BALB/c mouse methylated bovine serum albumin-induced arthritis model assessed as paw withdrawal latency administered 30 mins before mBSA challenge followed by second dose after 7 hrs by electronic Von Frey method", "type": "functional, organism-based"}, "MAP kinase p38": {"biological_target": "MAP kinase p38 (Mus musculus, UniProt P47811+O08911+Q9WUI1+Q9Z1B7)", "experiment": "Inhibition of LPS-induced p38 MAPK activation in BALB/c mouse peritoneal macrophages"}, "[2]": {"experiment": "Cytotoxicity against BALB/c mouse peritoneal macrophages after 20 hrs by MTT assay", "type": "cell-based", "settings": "Peritoneal macrophage cell"}, "Rattus norvegicus [3]": {"system": "Rattus norvegicus", "experiment": "Antiinflammatory activity in Wistar rat assessed as inhibition of carrageenan-induced paw oedema at 100 umol/kg, po after 3 hrs", "type": "functional, organism-based"}, "Rattus norvegicus [4]": {"system": "Rattus norvegicus", "experiment": "Antiinflammatory activity in Wistar rat assessed as inhibition of carrageenan-induced paw oedema at 100 umol/kg, po after 1 hr", "type": "functional, organism-based"}, "[5]": {"experiment": "Antiinflammatory activity in BALB/c mouse peritoneal macrophages assessed as inhibition of LPS-induced TNFalpha production treated 1 hr before LPS challenge measured after 24 hrs by ELISA", "type": "functional, cell-based", "settings": "Peritoneal macrophage cell"}, "[6]": {"experiment": "Antiinflammatory activity in BALB/c mouse peritoneal macrophages assessed as inhibition of LPS-induced TNFalpha production at 100 uM treated 1 hr before LPS challenge measured after 24 hrs by ELISA", "type": "functional", "settings": "Peritoneal macrophage cell"}}, "note": "Activity calls are given as the source filed them. No cut-off for these calls is given here."}
{"compound": "CCOC(=O)c1cc2cc3c(cc2nc1NC(=O)Nc1ccc([N+](=O)[O-])cc1)OCO3", "values": [{"measurement": "inhibition", "setting": "Rattus norvegicus [1]", "result": "Active"}]}
{"compound": "CCOC(=O)c1cc2cc3c(cc2nc1NC(=O)NC1CCCCC1)OCO3", "values": [{"measurement": "Activity", "setting": "Mus musculus", "result": "Dose-dependent effect"}, {"measurement": "IC50", "setting": "MAP kinase p38", "result": 14, "unit": "µM"}, {"measurement": "IC50", "setting": "[2]", "result": 46.7, "unit": "µM"}, {"measurement": "inhibition", "setting": "Rattus norvegicus [1]", "result": "Active"}, {"measurement": "inhibition", "setting": "Rattus norvegicus [3]", "result": "Active"}, {"measurement": "inhibition", "setting": "Rattus norvegicus [4]", "result": "Active"}, {"measurement": "IC50", "setting": "[5]", "result": 55, "unit": "µM"}, {"measurement": "inhibition at 100 µM", "setting": "[6]", "result": 50, "unit": "%"}]}
{"compound": "CCOC(=O)c1cc2cc3c(cc2nc1NC(=O)Nc1ccccc1)OCO3", "values": [{"measurement": "IC50", "setting": "[2]", "result": 42.7, "unit": "µM"}]}
{"compound": "C[S+]([O-])c1ccc(-c2nc(-c3ccc(F)cc3)c(-c3ccncc3)[nH]2)cc1", "note": "(stereo not drawn) [SB-203580]", "values": [{"measurement": "inhibition", "setting": "Rattus norvegicus [1]", "result": "Active"}, {"measurement": "IC50", "setting": "[5]", "result": 0.22, "unit": "µM"}]}
{"compound": "CCOC(=O)c1cc2cc3c(cc2nc1NC(=O)Nc1ccc(Br)cc1)OCO3", "values": [{"measurement": "inhibition", "setting": "Rattus norvegicus [1]", "result": "Active"}]}
